Values after ≈ are worked out from the molar mass of the structure shown. Like-named read-outs stand apart in the source and are kept apart here.
Assays:
[1] = tested on: M. tuberculosis H37Rv (ATCC 27294); test: Microplate Alamar blue assay (MABA); format: cell-based, Mycobacterium tuberculosis; details: for SI (Selectivity Index): (Vero Cell IC50)/(M. tuberculosis MIC); for MIC: Mycobacterium tuberculosis
VRE = test: Microbroth dilution antibiotic susceptibility assay; format: cell-based, Enterococcus faecium; details: Enterococcus, read-out: IC50 VRE
[2] = tested on: M. smegmatis (ATCC 12051); test: as above; format: cell-based; details: Mycolicibacterium smegmatis, ATCC12051; microbroth dilution; read-out: MIC M. smegmatis
[3] = tested on: M. tuberculosis H37Rv (ATCC 27294); test: microbe, parasite or virus in culture; format: cell-based, Mycobacterium tuberculosis; details: for inhibition at 64 µg/mL / MIC: Mycobacterium tuberculosis; for inhibition at 64 µg/mL: % inhibition at 64 μg/mL, read-out: LORA % inh; for MIC: read-out: LORA MIC
[4] = tested on: M. diernhoferi (ATCC 19340); test: Microbroth dilution antibiotic susceptibility assay; format: cell-based; details: Mycolicibacterium diernhoferi, ATCC19340; microbroth dilution; read-out: MIC M. diernhoferi
MRSA = test: as above; format: cell-based; details: Staphylococcus aureus, read-out: IC50 MRSA
Vero cells = test: cells; details: Chlorocebus sabaeus; for cytotoxicity at 128 µg/mL: read-out: Vero cell (% inh); for IC50: read-out: Vero cell IC50
[5] = M. tuberculosis H37Rv (ATCC 27294), replicating, read-out: MABA MIC
[6] = wild-type M. tuberculosis H37Rv, Table 2 experiment, read-out: MABA MIC H37Rv
[7] = non-replicating persistent model

| Compound | SI (Selectivity Index) [1] | MIC [1, 5] [µg/mL] | MIC [2] [µg/mL] | inhibition at 64 µg/mL [3] [%] | MIC [4] [µg/mL] | IC50 (Vero cells) [µg/mL] | other results |
| --- | --- | --- | --- | --- | --- | --- | --- |
| COc1c(O)c(OC)c(CC=C(C)C)c(CC=C(C)C)c1CC=C(C)C [Compound 16, 2,6-Dimethoxy-3,4,5-tris(3-methylbut-2-enyl)phenol] | >2.3 | 56 (≈ 156 µM) | > 128 | 79.7 | 8 (≈ 22.3 µM) | > 128 | IC50 (VRE): 3 µg/mL (≈ 8.37 µM); IC50 (MRSA): > 128 µg/mL; cytotoxicity at 128 µg/mL (Vero cells): 29% |
| CC(C)=C[C@@H]1C[C@H](C)[C@H]2CC[C@H](C)c3c2c1c(C)c1nccnc31 [Compound 5, Pseudopteroquinoxaline] | 0.8 | 29 (≈ 90.5 µM) | 16 (≈ 49.9 µM) | 99.9 | 64 (≈ 200 µM) | 22 (≈ 68.6 µM) | IC50 (VRE; microbroth dilution): > 128 µg/mL; IC50 (MRSA; microbroth dilution): > 128 µg/mL |
| CC(C)=CC1CC(C)C2CCC(C)c3c2c1c(C)c1nc(C(C)O)oc31 (stereo not shown) [Compound 29] | 0.5 | 53 (≈ 150 µM) |  | 99.8 |  | 24 (≈ 67.9 µM) |  |
| COc1ccc(CC=C(C)C)c(OC)c1O [Compound 14, 2,6-Dimethoxy-3-(3-methylbut-2-enyl)phenol] |  | > 128 | 128 (≈ 576 µM) | -4.7 | 64 (≈ 288 µM) | 44 (≈ 198 µM) | IC50 (VRE): > 128 µg/mL; IC50 (MRSA): > 128 µg/mL |
| COc1c(C)c2c3c(c1OC)[C@@H](C)CC[C@@H]3[C@@H](C)C[C@H]2C=C(C)C [Compound 10, 9,10-Dimethoxy-pseudopterosin G–J Aglycone] |  | > 128 | > 64 | 77.5 | > 64 | 51 (≈ 155 µM) | IC50 (VRE; microbroth dilution): 25 µg/mL (≈ 76.1 µM); IC50 (MRSA; microbroth dilution): > 128 µg/mL |
| CC(C)=CC1CC(C)C2CCC(C)c3c2c1c(C)c1nc(CC(N)=O)oc31 (stereo not shown) [Compound 33] | 0.8 | 59 (≈ 161 µM) |  | 97.1 |  | 45 (≈ 123 µM) |  |
| CC(C)=CC1CC(C)C2CCC(C)c3c2c1c(C)c1nc(-c2ccc(F)cc2)oc31 (stereo not shown) [Compound 24] |  | > 31 |  | -19 |  | > 31 | cytotoxicity at 128 µg/mL (Vero cells): 0% |
| CO[C@H]1/C=C/O[C@@]2(C)Oc3c(C)c(O)c4c(O)c(c(/C=N/N5CCN(C)CC5)c(O)c4c3C2=O)NC(=O)/C(C)=C\C=C\[C@H](C)[C@H](O)[C@@H](C)[C@@H](O)[C@@H](C)[C@H](OC(C)=O)[C@@H]1C [Rifampin, reference compound] |  | 0.04 (≈ 0.0486 µM) | 4 (≈ 4.86 µM) |  | 4 (≈ 4.86 µM) |  | MIC [1, 6]: 0.03 µg/mL (≈ 0.0365 µM); IC50 (VRE; microbroth dilution): 0.88 µg/mL (≈ 1.07 µM); MIC [3]: 0.93 µg/mL (≈ 1.13 µM) |
| CCC(C)c1nc2c(C)c3c4c(c2o1)C(C)CCC4C(C)CC3C=C(C)C (stereo not shown) [Compound 26] |  | > 103 |  | 59.1 |  | 73 (≈ 200 µM) |  |
| COc1cc(CC=C(C)C)c(CC=C(C)C)c(OC)c1O [Compound 15, 2,6-Dimethoxy-3,4-bis(3-methylbut-2-enyl)phenol] | 1.1 | 59 (≈ 203 µM) | 8 (≈ 27.5 µM) | 99.7 | 8 (≈ 27.5 µM) | 64 (≈ 220 µM) | IC50 (VRE): 3 µg/mL (≈ 10.3 µM); MIC [3, 7]: 58 µg/mL (≈ 200 µM); IC50 (MRSA): 20 µg/mL (≈ 68.9 µM) |
| CCCCCOc1c(C)c2c3c(c1O)[C@@H](C)CC[C@@H]3[C@@H](C)C[C@H]2C=C(C)C [Compound 8, 10-Pentoxy-pseudopterosin G–J Aglycone] |  | > 128 | > 128 | 35.1 | > 128 | 49 (≈ 132 µM) | IC50 (VRE; microbroth dilution): 22 µg/mL (≈ 59.4 µM); IC50 (MRSA; microbroth dilution): 47 µg/mL (≈ 127 µM) |
| COc1ccccc1-c1nc2c(C)c3c4c(c2o1)C(C)CCC4C(C)CC3C=C(C)C (stereo not shown) [Compound 23] |  | > 82 |  | 83.3 |  | 34 (≈ 81.8 µM) |  |
| CC(C)=CC1CC(C)C2CCC(C)c3c2c1c(C)c1nc(CCC(=O)O)oc31 (stereo not shown) [Compound 31] | 1.1 | 95 (≈ 249 µM) |  | 99.1 |  | 102 (≈ 267 µM) |  |
| COc1ccc(CC=C(C)C)c(OC)c1O[C@@H]1O[C@H](CO)[C@H](O)[C@H](O)[C@H]1O [Compound 20, 2,6-Dimethoxy-3-(3-methylbut-2-enyl)phenol-β-D-galactopyranoside] |  | > 128 | > 128 | -24.8 | > 128 | 82 (≈ 213 µM) | IC50 (VRE): > 128 µg/mL; IC50 (MRSA): > 128 µg/mL |
| COc1c(C)c2c3c(c1OS(=O)(=O)C(F)(F)F)[C@@H](C)CC[C@@H]3[C@@H](C)C[C@H]2C=C(C)C [Compound 11, 9-Trifluoromethylsulfonyloxy-10-methoxy-pseudopterosin G–J Aglycone] |  | > 128 | > 64 | 37.5 | > 64 | 51 (≈ 114 µM) | IC50 (VRE; microbroth dilution): > 128 µg/mL; IC50 (MRSA; microbroth dilution): > 128 µg/mL |
| COC(C)(C)C[C@@H]1C[C@H](C)[C@H]2CC[C@H](C)c3c2c1c(C)c1nccnc31 [Compound 6, 14,15-Dihydro-15-methoxy-pseudopteroquinoxaline] | 0.2 | 84 (≈ 238 µM) |  | 99.9 |  | 15 (≈ 42.6 µM) |  |
| CC(C)=C[C@@H]1C[C@H](C)[C@H]2CC[C@H](C)c3c2c1c(C)c1ocnc31 [Compound 22, isopseudopteroxazole] | 3.6 | 14 (≈ 45.2 µM) |  | 100 |  | 52 (≈ 168 µM) | MIC [3, 7]: 44 µg/mL (≈ 142 µM) |
| CN[C@H](CC(C)C)C(=O)N[C@H]1C(=O)N[C@@H](CC(N)=O)C(=O)N[C@H]2C(=O)N[C@H]3C(=O)N[C@H](C(=O)N[C@H](C(=O)O)c4cc(O)cc(O)c4-c4cc3ccc4O)[C@H](O)c3ccc(c(Cl)c3)Oc3cc2cc(c3O[C@@H]2O[C@H](CO)[C@@H](O)[C@H](O)[C@H]2O[C@H]2C[C@](C)(N)[C@H](O)[C@H](C)O2)Oc2ccc(cc2Cl)[C@H]1O [Vancomycin, reference compound] |  |  |  |  |  |  | IC50 (MRSA): 1.23 µg/mL (≈ 0.849 µM) |
| CC(C)=CC1CC(C)C2CCC(C)c3c2c1c(C)c1nc(Cc2ccccc2)oc31 (stereo not shown) [Compound 28] |  | > 128 |  | 13.7 |  | 82 (≈ 205 µM) |  |
| CC(C)=CC1CC(C)C2CCC(C)c3c2c1c(C)c1nc(C)oc31 (stereo not shown) [Compound 25] | 0.8 | 15 (≈ 46.4 µM) |  | 99 |  | 12 (≈ 37.1 µM) |  |
| CC(C)=CC1CC(C)C2CCC(C)c3c2c1c(C)c1nc(CCC(N)=O)oc31 (stereo not shown) [Compound 32] | 1.9 | 29 (≈ 76.2 µM) |  | 99 |  | 54 (≈ 142 µM) |  |
| O=[N+]([O-])c1cn2c(n1)OC[C@@H](OCc1ccc(OC(F)(F)F)cc1)C2 [PA824, reference compound] |  | 0.15 (≈ 0.418 µM) |  |  |  |  |  |
| COC(=O)CCc1nc2c(C)c3c4c(c2o1)C(C)CCC4C(C)CC3C=C(C)C (stereo not shown) [Compound 30] |  | > 128 |  | 99.1 |  | 31 (≈ 78.4 µM) | MIC [3, 7]: 62 µg/mL (≈ 157 µM) |
| CSCCc1nc2c(C)c3c4c(c2o1)C(C)CCC4C(C)CC3C=C(C)C (stereo not shown) [Compound 27] | >1.2 | 107 (≈ 278 µM) |  | 90 |  | > 128 | cytotoxicity at 128 µg/mL (Vero cells): 0% |
| NNC(=O)c1ccncc1 [Isoniazid] |  | 0.03 (≈ 0.219 µM) |  |  |  |  | MIC [1, 6]: 0.03 µg/mL (≈ 0.219 µM); LORA (% inh) in MIC column ([3]; % inhibition in parentheses, where the MIC exceeds the stated concentration): 65%; MIC [3, 7]: > 128 µg/mL |
